In US8410089B2, “Fused heterocyclic ring compound” (Takeda Pharmaceutical Company Limited, priority 2009, dated 2013):

Target: T1, human GPR119 (Homo sapiens, UniProt Q8TDV5)
T1 construct: expressed in transfected cells
T1 sequence (Q8TDV5 1-335): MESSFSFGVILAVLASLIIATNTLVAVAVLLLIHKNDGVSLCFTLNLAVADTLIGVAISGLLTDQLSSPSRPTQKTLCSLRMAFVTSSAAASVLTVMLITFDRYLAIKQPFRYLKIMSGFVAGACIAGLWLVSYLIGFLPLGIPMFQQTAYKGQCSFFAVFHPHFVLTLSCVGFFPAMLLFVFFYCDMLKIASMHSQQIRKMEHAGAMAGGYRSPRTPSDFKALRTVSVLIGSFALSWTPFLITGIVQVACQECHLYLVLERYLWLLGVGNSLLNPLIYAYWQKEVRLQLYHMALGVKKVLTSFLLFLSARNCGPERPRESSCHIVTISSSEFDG
Test: Human GPR119 agonist activity with increase of intracellular cAMP concentration as index (CRE-luciferase reporter assay in hGPR119/CRE-luc/CHO(dhfr-) cells)
Format: cell-based
Conditions: 1 μM test compound, 2 hr incubation; luciferase activity with 10 μM N-[4-(methylsulfonyl)phenyl]-5-nitro-6-{4-[4-(trifluoromethoxy)phenoxy]piperidin-1-yl}pyrimidin-4-amine = 100%, DMSO = 0%
Experimental: Evaluation of Human GPR119 Agonist Activity with Increase of Intracellular Camp Concentration as Index
(1) Construction of Expression Plasmid of Human GPR119 Gene
Using High Fidelity RNA PCR Kit (Takara Bio Inc.), human GPR119 gene was cloned by PCR using cDNA library synthesized from human brain mRNA (Clontech) as a template and synthetic DNA having the following sequence. Primer 1 and Primer 2 were is prepared by adding cleavage sites for Sal I and Nhe I based on the base sequence information of human GPR119 gene.
PCR was performed using Pyrobest DNA polymerase (Takara Bio Inc.). The obtained PCR product was cloned to pUC118 (Takara Bio Inc.), and the base sequence was […] and digested with restriction enzymes Sal I, Nhe I. The obtained DNA fragment was inserted into an animal cell expression vector pAKKO-111H (plasmid same as pAKKO-1.111H described in Biochem. Biophys. Acta, Hinuma, S. et al., 1219, 251-259 (1994)) similarly digested with Sal I, Nhe I, whereby an expression plasmid pAKKO-111H/hGPR119 was prepared.
(2) Construction of Reporter Plasmid
Zeocin resistance gene was cloned by PCR using plasmid pcDNA3.1/Zeo (Invitrogen) as a template, synthetic DNA having the following sequences wherein cleavage sites for restriction enzymes Sal I and BamH I are added to before and after a region containing SV40 Ori and a region containing SV40pA, which are located at the upstream and downstream of Zeocin resistance gene of this plasmid, as a primer set, and KOD polymerase (TOYOBO).
The obtained PCR product was inserted into pCR-BluntII (Invitrogen). A fragment containing a Zeocine resistance gene obtained by digesting the plasmid with restriction enzymes Sal I and BamH I was inserted into plasmid pGL3(R2.2)-Basic Vector (promega) similarly digested with Sal I and Bam HI to give Zeocin resistance plasmid pGL3(R2.2)/Zeocin-Basic Vector.
A reporter plasmid containing 4 cAMP responsive elements (CRE) connected in tandem was prepared using the following 5′-terminal phosphorylated synthetic DNA.
First, a DNA fragment containing a CRE sequence obtained by annealing CRE-Upper and CRE-Lower and elongating with KOD polymerase was inserted into pCR-BluntII to give pCR-BluntII-CRE. A fragment cleaved from pCR-BluntII-CRE with restriction enzymes Kpn I and Hind III was inserted into pGL3(R2.2)/Zeocin-Basic Vector similarly digested with Kpn I and Hind III to give reporter plasmid pGL3(R2.2)/Zeocin-CRE-luc.
(3) Introduction of Human GPR119 Gene and Reporter Gene into CHO(dhfr-) Cells and Acquirement of Expressing Cell
CHO(dhfr-) cells in MEMα (minimum essential medium alpha) (Nikken bio medical laboratory) medium containing 10% fetal bovine serum, 100 U/mL penicillin and 100 μg/mL streptomycin (Invitrogen) were detached by a treatment with trypsin-EDTA (ethylenediaminetetraacetic acid) (Invitrogen), the cells were washed with PBS (Phosphate-buffered saline), centrifuged (1000 rpm, 5 min) and suspended in PBS at a cell density of 1×10^7 cells/mL. Then, DNA was introduced into the cell by a gene pulser (Bio-Rad) under the following conditions. That is, 1×10^7 cells, plasmid pGL3(R2.2)/Zeocin-CRE-luc (15 μg), which was obtained in (2) and linearized with BssH II, and pAKKO-111H (5 μg) were added in a 0.4 cm gap cuvette, and the mixture was electroporated at voltage […], capacitance 950 μF. The cells were placed in the above-mentioned medium, cultured for 24 hr, and the cells were detached and centrifuged. The cells were diluted to 250 cells/well, plated in a 96 well plate (Corning) and cultivated in a CO2 incubator at 37° C. to give a transformant. Then, forskolin was added to the obtained transformant and a strain (CRE-luc/CHO(dhfr-) cell) that induces luciferase expression was selected. […]

Row | GPR119 agonist activity (%) at 1 μM concentration | SMILES
1 | 81% | COCC(=O)Nc1ccc2c(c1)CCN2c1cc(OC2CCN(C(=O)SC(C)C)CC2)ncn1 [Example 60, S-(1-methylethyl) 4-[(6-{5-[(methoxyacetyl)amino]-2,3-dihydro-1H-indol-1-yl}pyrimidin-4-yl)oxy]piperidine-1-carbothioate]
2 | 74% | CC(C)OC(=O)N1CCC(Oc2cc(N3CCc4cc(S(C)(=O)=O)ccc43)ncn2)CC1 [Example 18, 1-methylethyl 4-({6-[5-(methylsulfonyl)-2,3-dihydro-1H-indol-1-yl]pyrimidin-4-yl}oxy)piperidine-1-carboxylate]
3 | 79% | CCc1cnc(N2CCC(Oc3cc(N4CCc5cc(C(=O)NC(C)CO)ccc54)ncn3)CC2)nc1 (centres unmarked) [Example 23, 1-(6-{[1-(5-ethylpyrimidin-2-yl)piperidin-4-yl]oxy}pyrimidin-4-yl)-N-(1-hydroxypropan-2-yl)-2,3-dihydro-1H-indole-5-carboxamide]
4 | 78% | CC(C)c1noc(N2CCC(Oc3cc(N4CCc5cc(C(=O)N(C)CCO)ccc54)ncn3)CC2)n1 [Example 30, N-(2-hydroxyethyl)-N-methyl-1-[6-({1-[3-(1-methylethyl)-1,2,4-oxadiazol-5-yl]piperidin-4-yl}oxy)pyrimidin-4-yl]-2,3-dihydro-1H-indole-5-carboxamide]
5 | 77% | CC(C)c1noc(N2CCC(Oc3cc(N4CCc5cc(S(C)(=O)=O)cc(F)c54)ncn3)CC2)n1 [Example 64, 7-fluoro-1-[6-({1-[3-(1-methylethyl)-1,2,4-oxadiazol-5-yl]piperidin-4-yl}oxy)pyrimidin-4-yl]-5-(methylsulfonyl)-2,3-dihydro-1H-indole]
6 | 85% | CSC(=O)N1CCC(Oc2cc(N3CCc4cc(S(C)(=O)=O)ccc43)ncn2)CC1 [Example 61, S-methyl 4-({6-[5-(methylsulfonyl)-2,3-dihydro-1H-indol-1-yl]pyrimidin-4-yl}oxy)piperidine-1-carbothioate]
7 | 87% | CC(C)(C)OC(=O)N1CCC(n2ccc3c(N4CCc5cc(S(C)(=O)=O)ccc54)ccnc32)CC1 [Example 3, tert-butyl 4-{4-[5-(methylsulfonyl)-2,3-dihydro-1H-indol-1-yl]-1H-pyrrolo[2,3-b]pyridin-1-yl}piperidine-1-carboxylate]
8 | 88% | CN(CCO)C(=O)c1ccc2c(c1)CCN2c1cc(OC2CCN(C(=O)OC(C)(C)C)CC2)ncn1 [Example 20, tert-butyl 4-[(6-{5-[(2-hydroxyethyl)(methyl)carbamoyl]-2,3-dihydro-1H-indol-1-yl}pyrimidin-4-yl)oxy]piperidine-1-carboxylate]
9 | 75% | CC(C)SC(=O)N1CCC(Oc2cc(N3CCc4cc(N5CCCC5=O)ccc43)ncn2)CC1 [Example 45, S-(1-methylethyl) 4-({6-[5-(2-oxopyrrolidin-1-yl)-2,3-dihydro-1H-indol-1-yl]pyrimidin-4-yl}oxy)piperidine-1-carbothioate]
10 | 80% | COCCN(C)C(=O)c1ccc2c(c1)CCN2c1cc(OC2CCN(c3nc(C(C)C)no3)CC2)ncn1 [Example 31, N-(2-methoxyethyl)-N-methyl-1-[6-({1-[3-(1-methylethyl)-1,2,4-oxadiazol-5-yl]piperidin-4-yl}oxy)pyrimidin-4-yl]-2,3-dihydro-1H-indole-5-carboxamide]
11 | 77% | COCC(=O)Nc1ccc2c(c1)CCN2c1cc(OC2CCN(C(=O)OC(C)C)CC2)ncn1 [Example 59, isopropyl 4-[(6-{5-[(methoxyacetyl)amino]-2,3-dihydro-1H-indol-1-yl}pyrimidin-4-yl)oxy]piperidine-1-carboxylate]
12 | 85% | CC(C)SC(=O)N1CCC(Oc2cc(N3CCc4cc(NC(=O)C5CCCO5)ccc43)ncn2)CC1 [Example 50, S-(1-methylethyl)4-{[6-(5-{[(2R)-tetrahydrofuran-2-ylcarbonyl]amino}-2,3-dihydro-1H-indol-1-yl)pyrimidin-4-yl]oxy}piperidine-1-carbothioate]
13 | 85% | CCc1noc(N2CCC(Oc3cc(N4CCc5cc(S(C)(=O)=O)ccc54)ncn3)CC2)n1 [Example 41, 1-(6-{[1-(3-ethyl-1,2,4-oxadiazol-5-yl)piperidin-4-yl]oxy}pyrimidin-4-yl)-5-(methylsulfonyl)-2,3-dihydro-1H-indole]
14 | 75% | CCc1cnc(N2CCC(Oc3cc(N4CCc5cc(NC(=O)CO)ccc54)ncn3)CC2)nc1 [Example 56, N-[1-(6-{[1-(5-ethylpyrimidin-2-yl)piperidin-4-yl]oxy}pyrimidin-4-yl)-2,3-dihydro-1H-indol-5-yl]-2-hydroxyacetamide]
15 | 83% | CC(C)OC(=O)N1CCC(N(c2cc(N3CCc4cc(S(C)(=O)=O)ccc43)ncn2)C(F)(F)F)CC1 [Example 70, 1-methylethyl 4-[{6-[5-(methylsulfonyl)-2,3-dihydro-1H-indol-1-yl]pyrimidin-4-yl}(trifluoromethyl)amino]piperidine-1-carboxylate]
16 | 77% | CC(C)(C)OC(=O)N1CCCC(n2ccc3c(N4CCc5cc(S(C)(=O)=O)ccc54)ncnc32)CC1 (centres unmarked) [Example 16, tert-butyl 4-{4-[5-(methylsulfonyl)-2,3-dihydro-1H-indol-1-yl]-7H-pyrrolo[2,3-d]pyrimidin-7-yl}azepane-1-carboxylate]
17 | 83% | CC(C)OC(=O)N1CCC(Oc2cc(N3CCc4cc(NC(=O)[C@H]5CCCO5)ccc43)ncn2)CC1 [Example 51, isopropyl 4-{[6-(5-{[(2R)-tetrahydrofuran-2-ylcarbonyl]amino}-2,3-dihydro-1H-indol-1-yl)pyrimidin-4-yl]oxy}piperidine-1-carboxylate]
18 | 84% | CC(C)OC(=O)N1CCC(Oc2cc(N3CCc4cc(NC(=O)CO)ccc43)ncn2)CC1 [Example 55, isopropyl 4-[(6-{5-[(hydroxyacetyl)amino]-2,3-dihydro-1H-indol-1-yl}pyrimidin-4-yl)oxy]piperidine-1-carboxylate]
19 | 96% | CC(C)OC(=O)N1CCC(n2ccc3c(N4CCc5cc([N+](=O)[O-])ccc54)ncnc32)CC1 [Example 7, 1-methylethyl 4-[4-(5-nitro-2,3-dihydro-1H-indol-1-yl)-7H-pyrrolo[2,3-d]pyrimidin-7-yl]piperidine-1-carboxylate]
20 | 77% | COc1cnc(N2CCC(N(c3cc(N4CCc5cc(S(C)(=O)=O)ccc54)ncn3)C(F)(F)F)CC2)nc1 [Example 72, N-[1-(5-methoxypyrimidin-2-yl)piperidin-4-yl]-6-[5-(methylsulfonyl)-2,3-dihydro-1H-indol-1-yl]-N-(trifluoromethyl)pyrimidin-4-amine]
